Experimental findings from paper PMC11374673, “Discovery of isoquinoline sulfonamides as allosteric gyrase inhibitors with activity against fluoroquinolone-resistant bacteria” (Nature Chemistry, 2024) are described below.

Where “and” joins values, the source holds several entries; their conditions need not be identical. Identical values can stand only once. Bounds are passed on as bounds.

Assay [1] has as its system 60-resistant (60-r) isolates of E. coli W3110. As to the kind of experiment: microbe, parasite or virus in culture. The class given is cell-based, Escherichia coli. On the procedure:
MIC was determined by broth microdilution. Single-colony cultures were grown to exponential phase (OD600 of 0.5) aerobically at 37 °C. In case of strains from the Keio collection, 50 µg ml^−1 kanamycin was supplemented to the media to ascertain a homogeneous population. The bacterial suspensions were diluted 100-fold in CAMHB and 50 µl was added to a twofold serial dilution series of test compounds (50 µl per well) in polypropylene 96-well microtitre plates to reach a volume of 100 µl. The plates were sealed with breathable membranes and incubated overnight at 37 °C with constant shaking (600 r.p.m.). The MIC was determined as the lowest concentration at which no visible bacterial growth was observed as compared with the inoculum controls from the median of a minimum of triplicates.
The plates were incubated at 37 °C and checked for growth after 24 and 48 h. […] Nine colonies with an increased MIC were selected for further analysis and stored as glycerol stocks.

For assay [2], the system named is E. coli W3110. As to the kind of experiment: MIC by broth microdilution. The class given is cell-based, Escherichia coli. Put shortly: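 Broth microdilution in CAMHB: twofold compound series inoculated with 100-fold-diluted bacteria from exponential growth (OD600 0.5, 37 °C); kanamycin 50 µg ml^−1 added for Keio collection strains. Overnight incubation, 37 °C, 600 r.p.m. shaking.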
(In broth dilution the organism is exposed to a series of concentrations in liquid medium.)

Assay [3] relates to E. coli W3110. As to the kind of experiment: H-89 derivatives rescreen, 50 µM. The class given is cell-based. To be noted: Escherichia coli, H-89 derivative rescreen, highest 50 µM. On the procedure: From glycerol stocks, E. coli W3110 was cultured on blood agar plates (PB5039A, Thermo Scientific) by overnight (18 ± 2 h) aerobic incubation at 37 °C. A single colony was transferred to tryptic soy broth (TSB, 02-200-500, Scharlab). The cultures were grown to exponential phase (OD600 of 0.5) at 37 °C. The bacterial suspensions were diluted 200-fold in cation-adjusted Mueller–Hinton broth (CAMHB) and 99 µl was added to a library of test compounds (1 µl 10 mM DMSO stock, per well in technical duplicates) in polypropylene 96-well microtitre plates to reach a volume of 100 µl and a final concentration of 100 µM for each test compound and a maximum of 1% DMSO. […] Screening hits were selected from the wells where no visible bacterial growth was observed, as compared with the inoculum controls containing 1% DMSO. The follow-up screen of H-89 derivatives was performed under similar conditions with a final concentration of 50 µM.

Where [4] appears, read: Escherichia coli, E. coli W3110 60-r1.
Where [5] appears, read: Escherichia coli, E. coli W3110 60-r3.
[6] abbreviates: Escherichia coli, E. coli W3110 60-r6.
Where [7] appears, read: Escherichia coli, W3110, read-out: MIC E. coli W3110.
Setting [8] is: WT, broth microdilution, read-out: MIC E. coli W3110.

For `CC(C)(O/N=C(\C(=O)N[C@@H]1C(=O)N2C(C(=O)[O-])=C(C[n+]3ccccc3)CS[C@H]12)c1csc(N)n1)C(=O)O` [Ceftazidime], the MIC in assay [1] (setting [4]) is 0.375 µM and 0.2 µg/mL; in assay [1] (setting [5]), 0.75 µM and 0.4 µg/mL; in assay [1] (setting [6]) it was 0.75 µM and 0.4 µg/mL; in assay [2] (Escherichia coli, W3110), 0.4 µg/mL; in assay [2] (setting [7]), 0.75 µM. For the molecule `O=C(N[C@H](CO)[C@H](O)c1ccc([N+](=O)[O-])cc1)C(Cl)Cl` [Chloramphenicol], the MIC is 12.4 µM and 4 µg/mL in assay [1] (setting [4]); 12.4 µM and 4 µg/mL in assay [1] (setting [5]); 12.4 µM and 4 µg/mL in assay [1] (setting [6]); 4 µg/mL in assay [2] (Escherichia coli, W3110); 12.4 µM in assay [2] (setting [7]). As for `CN(CCNC/C=C/c1ccc(-c2cccnc2)cc1)S(=O)(=O)c1cccc2cnccc12` [Compound 8], the MIC in assay [3] is above 50 µM. On to `CN(C/C=C/c1ccc(-c2cccnc2)cc1)CCNS(=O)(=O)c1cccc2cnccc12` [Compound 9], for which, in assay [3], the MIC was above 50 µM. Consider `CN(CCNCCCc1ccc(-c2cccnc2)cc1)S(=O)(=O)c1cccc2cnccc12` [Compound 10], for which, in assay [3], the MIC is above 50 µM. In the case of `O=S(=O)(NCCCCCCc1ccc(-c2cccnc2)cc1)c1cccc2cnccc12` [Compound 11], the MIC in assay [3] is above 50 µM. Molecule `O=C(CCc1ccc(-c2cnc3[nH]ccc3c2)cc1)NCCNS(=O)(=O)c1ccccc1` [Compound 12] came in with an MIC in assay [3] above 50 µM.

`O=C(CCc1ccc(-c2cnc3[nH]ccc3c2)cc1)NCCNS(=O)(=O)c1ccc(Cl)cc1` [Compound 13]: in assay [3], the MIC is above 50 µM. `O=C(CCc1ccc(-c2cnc3[nH]ccc3c2)cc1)NCCNS(=O)(=O)c1ccc(Cl)c(Cl)c1` [Compound 14] displayed an MIC in assay [3] above 50 µM. Regarding `Cc1ccc(S(=O)(=O)NCCNC(=O)CCc2ccc(-c3cnc4[nH]ccc4c3)cc2)cc1` [Compound 15], in assay [3], the MIC is above 50 µM. `COc1ccc(S(=O)(=O)NCCNC(=O)CCc2ccc(-c3cnc4[nH]ccc4c3)cc2)cc1` [Compound 16]: the MIC in assay [3] was above 50 µM. Regarding `O=S(=O)(NCCNCCCc1ccc(-c2cnc3[nH]ccc3c2)cc1)c1ccc(Cl)cc1` [Compound 17], the MIC in assay [3] was above 50 µM.

The molecule `Cc1ccc(S(=O)(=O)NCCNCCCc2ccc(-c3cnc4[nH]ccc4c3)cc2)cc1` [Compound 18] registered an MIC in assay [3] above 50 µM.

For the molecule `O=S(=O)(NCCNCCCc1ccc(-c2cnc3[nH]ccc3c2)cc1)c1ccccc1` [Compound 19], the MIC in assay [3] was above 50 µM. `COc1ccc(S(=O)(=O)NCCNCCCc2ccc(-c3cnc4[nH]ccc4c3)cc2)cc1` [Compound 20] came in with an MIC in assay [3] above 50 µM.

Molecule `O=C(CCC#Cc1cnc2[nH]ccc2c1)NCCNS(=O)(=O)c1cccc2cnccc12` [Compound 21] showed an MIC in assay [3] above 50 µM. In assay [3], `O=S(=O)(NCCNCCCc1ccc(-c2cnc3[nH]ccc3c2)cc1)c1ccc(Cl)c(Cl)c1` [Compound 22] registered an MIC above 50 µM.

In assay [3], `O=C(CCc1ccc(-c2cnc3[nH]ccc3c2)cc1)NCCNS(=O)(=O)c1cccc([N+](=O)[O-])c1` [Compound 23] registered an MIC above 50 µM.

Turning to `O=C(CCc1ccc(-c2cnc3[nH]ccc3c2)cc1)NCCNS(=O)(=O)c1cccc(Cl)c1` [Compound 24], in assay [3], the MIC was above 50 µM.

As to `O=C(CCc1ccc(-c2cnc3[nH]ccc3c2)cc1)NCCNS(=O)(=O)c1ccc(F)cc1` [Compound 25], in assay [3], the MIC was above 50 µM. Consider `Clc1cnc(N2CCCC2)nc1Nc1n[nH]c2ccccc12` [Compound 26], for which, in assay [3], the MIC is above 50 µM. `CC(C)(C)c1cc(NC(=O)CCC#Cc2cccnc2)no1` [Compound 27] gave an MIC in assay [3] above 50 µM. `CC(C)(C)c1cc(NC(=O)CCC#Cc2cnc3[nH]ccc3c2)no1` [Compound 28] had an MIC in assay [3] above 50 µM. `CC(C)(C)c1cc(NC(=O)CCC#Cc2ccc(N)nc2)no1` [Compound 29]: the MIC in assay [3] is above 50 µM. Regarding `CC(C)(C)c1cc(C(=O)NCC#Cc2ccc(N)nc2)no1` [Compound 30], the MIC in assay [3] was above 50 µM. In assay [3], `CC(C)(C)c1cc(C(=O)NCC#Cc2cnc3[nH]ccc3c2)no1` [Compound 31] yielded an MIC above 50 µM. Molecule `CC(C)(C)c1cc(C(=O)NCC#Cc2cccnc2)no1` [Compound 32] returned an MIC in assay [3] above 50 µM. On the same count and under the same terms, the result for `CC(C)(C)c1cc(NC(=O)CCC#Cc2ccncc2)no1` [Compound 33] reads above 50 µM. For the molecule `Nc1nccc2c(S(=O)(=O)NCCNC/C=C/c3ccc(-c4cccnc4)cc3)cccc12` [Compound 34], the MIC in assay [3] is above 50 µM. Turning to `O=S(=O)(NCCNC/C=C/c1ccc(-c2cccnc2)cc1)c1cccc2cnccc12` [Compound 35], in assay [3], the MIC is above 50 µM.

Consider `CS(=O)(=O)NCCNC/C=C/c1ccc(-c2cccnc2)cc1` [Compound 36], for which, in assay [3], the MIC is above 50 µM. Molecule `O=C(NCCNC/C=C/c1ccc(-c2cccnc2)cc1)c1cccc2cnccc12` [Compound 37] yielded an MIC in assay [3] above 50 µM.

For `O=C(/C=C/c1ccc(-c2cccnc2)cc1)NCCNS(=O)(=O)c1cccc2cnccc12` [Compound 38], the MIC in assay [3] was above 50 µM. For the molecule `O=S(=O)(NCCNCCCCc1ccc(-c2cccnc2)cc1)c1cccc2cnccc12` [Compound 39], the MIC in assay [3] was above 50 µM. `Nc1ncccc1-c1ccc(CCC(=O)NCCNS(=O)(=O)c2cccc3cnccc23)cc1` [Compound 40] yielded an MIC in assay [3] above 50 µM. Same read-out and setting: the same measure for `Nc1ccc(-c2ccc(CCC(=O)NCCNS(=O)(=O)c3cccc4cnccc34)cc2)cn1` [Compound 41]: above 50 µM; for `CNC(=O)c1ccc(-c2ccc(CCC(=O)NCCNS(=O)(=O)c3cccc4cnccc34)cc2)cn1` [Compound 42]: above 50 µM.

`CNC(=O)c1ncccc1-c1ccc(CCC(=O)NCCNS(=O)(=O)c2cccc3cnccc23)cc1` [Compound 43]: in assay [3], the MIC was above 50 µM. Same read-out and setting: the same measure for `O=C(CCc1ccc(-c2cnc3[nH]ccc3c2)cc1)NCCNS(=O)(=O)c1cccc2cnccc12` [Compound 44]: above 50 µM; for `O=S(=O)(NCCNCCCc1ccc(-c2cnc3[nH]ccc3c2)cc1)c1cccc2cnccc12` [Compound 45]: above 50 µM. Consider `O=S(=O)(NCCNC/C=C/c1ccccc1-c1ccc2c(c1)OCO2)c1cccc2cnccc12` [Compound 46], for which the MIC in assay [3] is above 50 µM. Take `C[C@@H](O)[C@H]1C(=O)N2C(C(=O)O)=C(SCCN=CN)C[C@H]12` [Imipenem]: the MIC is 0.75 µM and 0.2 µg/mL in assay [1] (setting [4]); 0.375 µM and 0.1 µg/mL in assay [1] (setting [5]); 0.375 µM and 0.1 µg/mL in assay [1] (setting [6]); 0.1 µg/mL in assay [2] (Escherichia coli, W3110); 0.375 µM in assay [2] (setting [7]). In the case of `C[C@@H](O)[C@H]1C(=O)N2C(C(=O)O)=C(S[C@@H]3CN[C@H](C(=O)N(C)C)C3)[C@H](C)[C@H]12` [Meropenem], the MIC is 0.09 µM and 0.04 µg/mL in assay [1] (setting [4]); 0.05 µM and 0.02 µg/mL in assay [1] (setting [5]); 0.05 µM and 0.02 µg/mL in assay [1] (setting [6]); 0.02 µg/mL in assay [2] (Escherichia coli, W3110); 0.05 µM in assay [2] (setting [7]). On to Colistin, for which the MIC in assay [1] (E. coli W3110 60-r1) is 0.375 µM and 1 µg/mL; in assay [1] (E. coli W3110 60-r3) it was 0.375 µM and 1 µg/mL; in assay [1] (E. coli W3110 60-r6) it was 0.19 µM and 0.5 µg/mL; in assay [2] (E. coli W3110) it was 0.5 µg/mL; in assay [2] (setting [8]), 0.19 µM.

Neomycin: the MIC was 0.75 µM and 0.5 µg/mL in assay [1] (E. coli W3110 60-r1); 1.5 µM and 1 µg/mL in assay [1] (E. coli W3110 60-r3); 0.75 µM and 0.5 µg/mL in assay [1] (E. coli W3110 60-r6); 1 µg/mL in assay [2] (E. coli W3110); 1.5 µM in assay [2] (setting [8]).
